As a reminder, the ILS is how much longer treated animals lived than controls. Broadly, the LD50 is the dose at which mortality reaches 50%.

The source of these data is patent US4650799A, “Bis-dioxopiperazine derivatives, process for their preparation, antitumor agents comprising them and compositions containing them” (Zenyaku Kogyo Kabushiki Kaisha, priority 1983, dated 1987).

The structures appear in SMILES notation. Some results are limits rather than exact numbers.

In one data set the test system is Lewis lung carcinoma. The data set is described as follows: Animal Test on Lewis Lung Carcinoma (growth inhibition, metastasis). Format: in vivo, mice [BDF1 (C57BL/6×DBA/2)]. The settings on record: orally, 8 days, tumor weight on 20th day. How it is done: (§1) Antitumor activities of bis-dioxopiperazine derivatives which the present invention concerns were verified by the growth inhibition or the increase of life span in experimental animals with syngenic tumors such as P388 lymphocytic leukemia, Lewis lung carcinoma, B-16 melanoma and Colon Adenocarcinoma No. 38 as shown below.
(§2) The treated group to which the compound of the present invention was administered consisted of seven mice, while the control group consisted of ten mice. Six weeks old male mice [BDF1 (C57BL/6×DBA/2), 25±2 g of body weight] were employed as host animals.
Tumor cells (5×10^5) of Lewis lung carcinoma were transplanted subcutaneously in inguinal region of each mouse. The treatment began one day after the transplantation and the prescribed dose of each test compound was administered orally to the mice once a day for 8 days.
On the 20th day after the transplantation, the tumors of all the mice were excised and weighed. Antitumor activity of the test compound was evaluated by the rate of growth inhibition (G.I.%) which was calculated with the following formula. [formula] T: mean tumor weight of treated mice C: mean tumor weight of control mice

The next data set concerns B-16 melanoma. The experiment in a line: Animal Test on B-16 Melanoma (increase in life span). Format: in vivo, mice [BDF1 (C57BL/6×DBA/2)]. The settings on record: Mus musculus, B16, ip, 192 h; 20 mg/kg daily, i.p., 8 days. The procedure:
The treated group to which the compound of the present invention was administered consisted of seven mice, while the control group consisted of ten mice. Six weeks old male mice [BDF1 (C57BL/6×DBA/2) 25±2 g of body weight] were employed as host animals.
Tumor cells (5×10^5) of B-16 melanoma were transplanted intraperitoneally into each mouse. The treatment began one day after the transplantation and the prescribed dose of each test compound was administered intraperitoneally to the mice once a day for 8 days.
Antitumor activity of the test compound was evaluated by the rate of increase in life span (I.L.S.%) which was calculated in the same manner as used in the animal test on P388 lymphocytic leukemia.

Another data set can be described thus: Acute Toxicity Test. The settings on record: mouse, in vivo. The procedure: The test group to which the compound of the present invention was administered consisted of ten mice. Five weeks old male mice (ddY, 23±2 g of body weight) were employed as test animals.
The test system of data set [1] is P388 lymphocytic leukemia. The experiment in a line: Animal Test on P388 Lymphocytic Leukemia (increase in life span). The settings on record: Mus musculus, P388, ip, i.p.; for ILS at 20 mg/kg: 20 mg/kg × 9 days. Format: in vivo, mice [CDF1 (BALB/c×DBA/2)]. How it is done:
The treated group to which the compound of the present invention was administered consisted of seven mice, while the control group consisted of ten mice. Six weeks old male mice [CDF1 (BALB/c×DBA/2), 25±2 g of body weight] were employed as host animals.
Tumor cells (1.0×10^6) of P388 lymphocytic leukemia were transplanted intraperitoneally into each mouse. The treatment began one day after the transplantation and the prescribed dose of each test compound was administered intraperitoneally to the mice once a day for 9 days or on the 1st and 5th day.
Antitumor activity of the test compound was evaluated by the rate of increase in life span (I.L.S.%) which was calculated with the following formula. [formula] T: mean survival time of treated mice C: mean survival time of control mice

The test system of data set [2] is Colon adenocarcinoma No. 38. The data set is described as follows: Animal Test on Colon Adenocarcinoma No. 38 (growth inhibition). The data set is classed as in vivo, mice [BDF1 (C57BL/6×DBA/2)]. The settings on record: 60 mg/kg daily, orally, 8 days; tumor weight on 30th day. How it is done: as §1, §2
Tumor cells (40 mg of fragment) of Colon adenocarcinoma No. 38 were transplanted subcutaneously in inguinal region of each mouse. The treatment began one day after the transplantation and the prescribed dose of each test compound was administered orally to the mice once a day for 8 days.
On the 30th day after the transplantation, the tumors of all the mice were excised and weighed. Antitumor activity of the test compound was evaluated by the rate of growth inhibition (G.I.%) which was calculated in the same manner as used in the animal test on Lewis lung carcinoma.

For data set [3] the following is noted: protic polar solvents such as water, lower alcohol; background statement on known compound; cited from earlier work.

Turning to `CC(C)COC(=O)OCN1C(=O)CN(CCN2CC(=O)N(COC(=O)OCC(C)C)C(=O)C2)CC1=O` [1,2-bis(4-isobutoxycarbonyloxymethyl-3,5-dioxopiperazin-1-yl)ethane], the G.I. is 54.4% in the data set on Lewis lung carcinoma (50 mg/kg daily) and 68.8% in data set [2]. The ILS at 20 mg/kg in the data set on B-16 melanoma worked out at 86%; in data set [1] (216 h) it was 78%. In addition, the LD50 in “Acute Toxicity Test” (ip, 14 days observation) was over 850 mg/kg; in the data set “Acute Toxicity Test” (po), over 1000 mg/kg. In addition, in data set [1] (216 h, 60 mg/kg × 9 days), the ILS at 60 mg/kg came out at 175%. The ILS at 200 mg/kg in data set [1] (200 mg/kg × 2 (1st and 5th day)) was 138%.

As for `O=C1CN(CCN2CC(=O)N(CN3CCOCC3)C(=O)C2)CC(=O)N1CN1CCOCC1` [1,2-bis(4-morpholinomethyl-3,5-dioxopiperazin-1-yl)ethane, reference compound], the G.I. with Lewis lung carcinoma (60 mg/kg daily) is recorded as 22.6%; in data set [2], 72.8%. Moreover, the ILS at 20 mg/kg turned out to be 40% in the data set with B-16 melanoma and 90% in data set [1] (216 h). The 50% lethal dose (LD50) in the data set “Acute Toxicity Test” (ip, 14 days observation) is 280 mg/kg; in “Acute Toxicity Test” (po), over 1000 mg/kg. In data set [3], the “stability in protic polar solvents” value is “extremely unstable in the protic polar solvents such as water, lower alcohol and so on”. In addition, the ILS at 100 mg/kg in data set [1] (100 mg/kg × 2 (1st and 5th day)) amounted to 60%.
